How the values were obtained:
[1] = target: T1, human recombinant HDAC1 (Homo sapiens, UniProt Q13547); test: In vitro HDAC enzyme activity inhibition assay, HDAC1 (HDAC Fluorimetric Drug Discovery Kit); format: biochemical; settings: human recombinant HDAC1, Fluor de Lys-SIRT1 substrate 10 μM, 30° C. for 60 minutes
T1 construct: purchased Enzo Life Sciences, Inc. BML-SE456
Outline: (§1)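 Both HDAC1 and HDAC6 (human recombinant, 0.3 μg) tested identically: 10 μM fluorogenic Fluor de Lys-SIRT1 substrate, reaction 60 min at 30° C, developer added for 30 min. IC50 calculated from Ex 360/Em 460 signal over 5-fold serial dilutions.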

[2] = target: T2, human recombinant HDAC6 (Homo sapiens, UniProt Q9UBN7); test: In vitro HDAC enzyme activity inhibition assay, HDAC6 (HDAC Fluorimetric Drug Discovery Kit); format: biochemical; settings: for HDAC6 Selectivity (fold): HDAC6 versus HDAC1; for IC50: human recombinant HDAC6, same protocol as the HDAC1 test
T2 construct: purchased Calbiochem Inc. 382180
T2 sequence (Q9UBN7 1-1215): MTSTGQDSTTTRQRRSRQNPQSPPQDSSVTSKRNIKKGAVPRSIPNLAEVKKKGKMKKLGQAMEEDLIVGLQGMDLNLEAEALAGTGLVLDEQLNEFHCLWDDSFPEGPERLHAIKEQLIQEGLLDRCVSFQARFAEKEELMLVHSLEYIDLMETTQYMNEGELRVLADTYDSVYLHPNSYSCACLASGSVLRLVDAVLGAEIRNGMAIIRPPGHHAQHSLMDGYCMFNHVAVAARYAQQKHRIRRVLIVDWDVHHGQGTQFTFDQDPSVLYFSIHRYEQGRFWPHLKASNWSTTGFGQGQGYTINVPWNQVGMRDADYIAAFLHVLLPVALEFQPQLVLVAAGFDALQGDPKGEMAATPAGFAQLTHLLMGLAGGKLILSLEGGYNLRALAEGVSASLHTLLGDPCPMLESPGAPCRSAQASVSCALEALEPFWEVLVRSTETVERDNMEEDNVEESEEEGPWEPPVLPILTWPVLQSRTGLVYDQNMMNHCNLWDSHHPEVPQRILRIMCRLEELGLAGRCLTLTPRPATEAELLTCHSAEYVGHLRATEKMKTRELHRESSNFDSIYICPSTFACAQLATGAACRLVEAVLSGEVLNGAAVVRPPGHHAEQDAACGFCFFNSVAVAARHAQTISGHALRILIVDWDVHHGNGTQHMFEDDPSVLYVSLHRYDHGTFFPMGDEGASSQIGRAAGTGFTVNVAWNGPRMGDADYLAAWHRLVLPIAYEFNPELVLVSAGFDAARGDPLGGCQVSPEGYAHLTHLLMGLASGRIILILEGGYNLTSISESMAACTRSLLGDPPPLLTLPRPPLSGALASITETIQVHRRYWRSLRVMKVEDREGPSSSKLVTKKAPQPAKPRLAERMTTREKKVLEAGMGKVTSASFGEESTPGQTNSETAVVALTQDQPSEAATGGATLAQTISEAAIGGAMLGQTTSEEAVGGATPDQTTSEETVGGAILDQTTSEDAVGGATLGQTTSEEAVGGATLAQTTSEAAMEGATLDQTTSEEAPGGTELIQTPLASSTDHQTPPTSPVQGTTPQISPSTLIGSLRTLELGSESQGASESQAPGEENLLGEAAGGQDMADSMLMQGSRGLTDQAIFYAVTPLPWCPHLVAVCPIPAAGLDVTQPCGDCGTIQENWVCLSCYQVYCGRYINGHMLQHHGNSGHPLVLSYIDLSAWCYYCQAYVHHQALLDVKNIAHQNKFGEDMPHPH
Outline: as §1

T1 sequence (Q13547 whole entry): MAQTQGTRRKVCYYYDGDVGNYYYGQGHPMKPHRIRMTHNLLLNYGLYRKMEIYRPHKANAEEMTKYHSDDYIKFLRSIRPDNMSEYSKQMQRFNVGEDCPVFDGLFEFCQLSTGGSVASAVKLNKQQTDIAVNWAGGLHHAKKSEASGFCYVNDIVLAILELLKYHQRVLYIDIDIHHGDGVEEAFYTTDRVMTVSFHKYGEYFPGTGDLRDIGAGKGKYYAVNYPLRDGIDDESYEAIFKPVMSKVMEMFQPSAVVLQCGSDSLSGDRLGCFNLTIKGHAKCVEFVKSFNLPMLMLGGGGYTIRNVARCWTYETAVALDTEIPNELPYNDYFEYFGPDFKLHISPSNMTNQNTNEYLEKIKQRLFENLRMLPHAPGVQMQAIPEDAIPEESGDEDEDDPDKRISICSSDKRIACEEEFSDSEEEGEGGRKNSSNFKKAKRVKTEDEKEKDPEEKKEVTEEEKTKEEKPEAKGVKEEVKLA

IC50 [1] [nM]	HDAC6 Selectivity (fold) [2] [fold]	IC50 [2] [nM]	SMILES
> 50000	338	148	O=C(N1CCN(C2CCC(F)(F)CC2)CC1)N(Cc1cn2ccc(-c3nnc(C(F)F)o3)cc2n1)c1ccccc1 [Compound 4039, 4-(4,4-difluorocyclohexyl)-N-((7-(5-(difluoromethyl)-1,3,4-oxadiazol-2-yl)imidazo[1,2-a]pyridin-2-yl)methyl)-N-phenylpiperazine-1-carboxamide]
> 50000	107	468	O=C(N1CCN(c2ccccn2)CC1)N(Cc1cn2ccc(-c3nnc(C(F)F)o3)cc2n1)c1cccc(F)c1 [Compound 4100, N-((7-(5-(difluoromethyl)-1,3,4-oxadiazol-2-yl)imidazo[1,2-a]pyridin-2-yl)methyl)-N-(3-fluorophenyl)-4-(pyridin-2-yl)piperazine-1-carboxamide]
> 50000	151	330	Fc1ccc(Cc2cn3ccc(-c4nnc(C(F)F)o4)cc3n2)cc1 [Compound 3586, 2-(difluoromethyl)-5-(2-(4-fluorobenzyl)imidazo[1,2-a]pyridin-7-yl)-1,3,4-oxadiazole]
> 50000	315	159	CCN1CC(C(=O)N(Cc2cn3ccc(-c4nnc(C(F)F)o4)cc3n2)c2cccc(F)c2)C1 [Compound 4189, N-((7-(5-(difluoromethyl)-1,3,4-oxadiazol-2-yl)imidazo[1,2-a]pyridin-2-yl)methyl)-1-ethyl-N-(3-fluorophenyl) azetidine-3-carboxamide]
> 50000	121	413	Cc1cccc(OCc2cn3ccc(-c4nnc(C(F)F)o4)cc3n2)c1 [Compound 3720, 2-(difluoromethyl)-5-(2-((m-tolyloxy)methyl)imidazo[1,2-a]pyridin-7-yl)-1,3,4-oxadiazole]
> 50000	187	267	CC(=O)N1CCN(C(=O)N(Cc2cn3ccc(-c4nnc(C(F)F)o4)cc3n2)c2cccc(F)c2)CC1 [Compound 4092, 4-acetyl-N-((7-(5-(difluoromethyl)-1,3,4-oxadiazol-2-yl)imidazo[1,2-a]pyridin-2-yl)methyl)-N-(3-fluorophenyl)piperazine-1-carboxamide]
> 50000	404	124	O=C(N1CCN(C2CCCCC2)CC1)N(Cc1cn2ccc(-c3nnc(C(F)F)o3)cc2n1)c1ccccc1 [Compound 4037, 4-cyclohexyl-N-((7-(5-(difluoromethyl)-1,3,4-oxadiazol-2-yl)imidazo[1,2-a]pyridin-2-yl)methyl)-N-phenylpiperazine-1-carboxamide]
> 50000	140	358	O=C(C1CN(C2CCC2)C1)N(Cc1cn2ccc(-c3nnc(C(F)F)o3)cc2n1)c1ccccc1 [Compound 4162, 1-cyclobutyl-N-((7-(5-(difluoromethyl)-1,3,4-oxadiazol-2-yl)imidazo[1,2-a]pyridin-2-yl)methyl)-N-phenylazetidine-3-carboxamide]
> 50000	538	93	CCN1CCN(C(=O)N(Cc2cn3ccc(-c4nnc(C(F)F)o4)cc3n2)c2ccccc2)CC1 [Compound 4033, N-((7-(5-(difluoromethyl)-1,3,4-oxadiazol-2-yl)imidazo[1,2-a]pyridin-2-yl)methyl)-4-ethyl-N-phenylpiperazine-1-carboxamide]
> 50000	121	413	O=C(N1CCN(C(=O)C(F)(F)F)CC1)N(Cc1cn2ccc(-c3nnc(C(F)F)o3)cc2n1)c1cccc(F)c1 [Compound 4096, N-((7-(5-(difluoromethyl)-1,3,4-oxadiazol-2-yl)imidazo[1,2-a]pyridin-2-yl)methyl)-N-(3-fluorophenyl)-4-(2,2,2-trifluoroacetyl)piperazine-1-carboxamide]
> 50000	363	138	CS(=O)(=O)N1CCC(C(=O)N(Cc2cn3ccc(-c4nnc(C(F)F)o4)cc3n2)c2cccc(F)c2)CC1 [Compound 4153, N-((7-(5-(difluoromethyl)-1,3,4-oxadiazol-2-yl)imidazo[1,2-a]pyridin-2-yl)methyl)-N-(3-fluorophenyl)-1-(methylsulfonyl)piperidine-4-carboxamide]
> 50000	124	402	O=C(C1CCN(C2CCCCC2)CC1)N(Cc1cn2ccc(-c3nnc(C(F)F)o3)cc2n1)c1ccccc1 [Compound 4119, 1-cyclohexyl-N-((7-(5-(difluoromethyl)-1,3,4-oxadiazol-2-yl)imidazo[1,2-a]pyridin-2-yl)methyl)-N-phenylpiperidine-4-carboxamide]
> 50000	379	132	O=C(C1CN(C2CCCCC2)C1)N(Cc1cn2ccc(-c3nnc(C(F)F)o3)cc2n1)c1cccc(F)c1 [Compound 4194, 1-cyclohexyl-N-((7-(5-(difluoromethyl)-1,3,4-oxadiazol-2-yl)imidazo[1,2-a]pyridin-2-yl)methyl)-N-(3-fluorophenyl) azetidine-3-carboxamide]
> 50000	159	314	CC(C)N1CCC(C(=O)N(Cc2cn3ccc(-c4nnc(C(F)F)o4)cc3n2)c2ccccc2)CC1 [Compound 4116, N-((7-(5-(difluoromethyl)-1,3,4-oxadiazol-2-yl)imidazo[1,2-a]pyridin-2-yl)methyl)-1-isopropyl-N-phenylpiperidine-4-carboxamide]
> 50000	197	254	O=C(CO)N1CCN(C(=O)N(Cc2cn3ccc(-c4nnc(C(F)F)o4)cc3n2)c2ccccc2)CC1 [Compound 4042, N-((7-(5-(difluoromethyl)-1,3,4-oxadiazol-2-yl)imidazo[1,2-a]pyridin-2-yl)methyl)-4-(2-hydroxyacetyl)-N-phenylpiperazine-1-carboxamide]
> 50000	205	244	O=C(C1CN(c2ncccn2)C1)N(Cc1cn2ccc(-c3nnc(C(F)F)o3)cc2n1)c1ccccc1 [Compound 4177, N-((7-(5-(difluoromethyl)-1,3,4-oxadiazol-2-yl)imidazo[1,2-a]pyridin-2-yl)methyl)-N-phenyl-1-(pyrimidin-2-yl) azetidine-3-carboxamide]
> 50000	193	259	CCC(=O)N1CCN(C(=O)N(Cc2cn3ccc(-c4nnc(C(F)F)o4)cc3n2)c2ccccc2)CC1 [Compound 4041, N-((7-(5-(difluoromethyl)-1,3,4-oxadiazol-2-yl)imidazo[1,2-a]pyridin-2-yl)methyl)-N-phenyl-4-propionylpiperazine-1-carboxamide]
> 50000	152	329	O=C(C1CCC1)N1CCC(C(=O)N(Cc2cn3ccc(-c4nnc(C(F)F)o4)cc3n2)c2ccccc2)CC1 [Compound 4125, 1-(cyclobutanecarbonyl)-N-((7-(5-(difluoromethyl)-1,3,4-oxadiazol-2-yl)imidazo[1,2-a]pyridine-2-yl)methyl)-N-phenylpiperidine-4-carboxamide]
> 50000	125	401	COC(=O)N1CCC(C(=O)N(Cc2cn3ccc(-c4nnc(C(F)F)o4)cc3n2)c2ccccc2)CC1 [Compound 4129, methyl 4-(((7-(5-(difluoromethyl)-1,3,4-oxadiazol-2-yl)imidazo[1,2-a]pyridin-2-yl)methyl)(phenyl)carbamoyl)piperidine-1-carboxylate]

Reference: patent publication US12522601B2, “1,3,4-oxadiazole derivative compounds as histone deacetylase 6 inhibitor, and the pharmaceutical composition comprising the same” (CHONG KUN DANG PHARMACEUTICAL CORP., priority 2020, dated 2026)
